Values quoted from earlier work in publication PMC4585962, “A peptide factor secreted by Staphylococcus pseudintermedius exhibits properties of both bacteriocins and virulence factors” (Scientific Reports, 2015).

Key:
[1] = system: Galleria mellonella larvae; settings: degradation or inactivation by host agents; cited from earlier work
Experimental: (§1) BacSp222 remains active upon even prolonged incubation at elevated temperature and is exceptionally resistant to proteases in vitro. The former feature is quite common for bacteriocins, which, in combination with the virtual lack of cytotoxicity, contributes to common and successful application of bacteriocins in the food industry as preservatives, either in the form of additives or as coating agents for packaging materials. […] Resistan ...

[2] = system: mammalian cells; settings: cited from earlier work
Description: In addition to the evident bactericidal activity of BacSp222, the most intriguing findings are its cytotoxic and modulatory effects on mammalian cells. Generally, peptide bacteriocins are considered to be noncytotoxic. However, the first known bacterial toxin active against eukaryotic and prokaryotic cells was a cytolysin produced by Enterococcus faecalis.

[3] = system: proteases; settings: cited from earlier work
Experimental: as §1

Substance: epidermicin NI01
- time to loss of bacteriocin activity after administration [1]: lost within less than an hour

Substance: bovicin HC5
- concentrations with adverse effects on mammalian cells [2]: tens to hundreds

Substance: aureocin A53
- resistance to proteases [3]: Resistance to proteases

Substance: nisin: low molecular weight bacteriocin produced by lactic acid bacteria (ITSISLCTPGCKTGALMGCNMKTATCHCSIHVSK; not fully specified; Lantibiotic nisin-A; UniProt P13068 24-57, looked up)
- concentrations with adverse effects on mammalian cells [2]: tens to hundreds
